According to PMC9873984, “Membrane cholesterol regulates inhibition and substrate transport by the glycine transporter, GlyT2” (Life Science Alliance, 2023):
Substitutions are numbered along the chain they refer to.

How the values were obtained:
[1] = target: T1, GlyT2 F515W mutant (Homo sapiens, UniProt Q9Y345, F515W); assay: Inhibitor concentration–responses on glycine transport currents, two-electrode voltage clamp; assay type: cell-based; design: expressed in transfected cells; host or cells: Xenopus laevis oocytes injected with mutant RNA (pOTV vector); conditions: for IC50: F515W GlyT2 in Xenopus laevis oocytes
T1 sequence (Q9Y345 1-797 F515W): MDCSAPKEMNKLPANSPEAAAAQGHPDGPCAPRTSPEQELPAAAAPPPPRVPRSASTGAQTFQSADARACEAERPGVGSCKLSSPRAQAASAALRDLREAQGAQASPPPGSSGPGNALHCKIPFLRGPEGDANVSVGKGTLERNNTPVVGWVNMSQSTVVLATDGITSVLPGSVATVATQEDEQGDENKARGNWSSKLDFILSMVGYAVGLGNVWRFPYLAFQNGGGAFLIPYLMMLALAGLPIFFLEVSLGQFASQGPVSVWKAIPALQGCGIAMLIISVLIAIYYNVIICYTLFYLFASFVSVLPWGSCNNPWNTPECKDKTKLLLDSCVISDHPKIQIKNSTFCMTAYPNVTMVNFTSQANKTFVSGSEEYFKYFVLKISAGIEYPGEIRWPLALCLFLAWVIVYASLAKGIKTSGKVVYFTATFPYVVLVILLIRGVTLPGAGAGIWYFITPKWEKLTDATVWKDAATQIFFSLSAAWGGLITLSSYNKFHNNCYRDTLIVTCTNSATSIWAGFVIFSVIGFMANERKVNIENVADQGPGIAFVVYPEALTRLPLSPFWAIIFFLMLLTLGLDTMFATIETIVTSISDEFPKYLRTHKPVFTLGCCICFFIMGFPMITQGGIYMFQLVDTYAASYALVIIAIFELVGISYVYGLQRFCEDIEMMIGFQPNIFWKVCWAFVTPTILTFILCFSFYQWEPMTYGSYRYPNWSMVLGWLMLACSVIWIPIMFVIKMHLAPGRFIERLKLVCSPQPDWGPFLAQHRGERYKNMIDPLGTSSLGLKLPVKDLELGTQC
Description: (§1) Because of the slowly reversible nature of the compounds tested, inhibitor concentration–responses were performed cumulatively. An EC50 concentration of glycine was applied until a stable transport current was reached. EC50 concentrations of glycine were used to produce reliable currents for each transporter, and as the inhibitors are non-competitive, application of varying glycine concentrations is unlikely to affect their activity. Increasing concentrations of inhibitors were co-applied with glycine with each concentration producing a distinct plateau before the subsequent concentration was applied. Inhibitor concentration–responses were limited to a maximum concentration of 3 µM to mitigate the risk of changes to the free drug concentration because of micelle formation. Currents after the plateau of each inhibitor concentration were normalized to the current produced by application of glycine alone and fit using the method of least squares: Y=Bottom+(Top−Bottom)/(1+10^[X−LogIC50]), where X is log [inhibitor], Y is current normalized to glycine in the absence of inhibitor, and Top and Bottom are the maximal and minimal plateaus, respectively. The method of least squares was constrained to have the bottom value >0 and the hill slope as −1, enabling the calculation of IC50 values and the extent of inhibition produced by the maximal concentration applied.
(§2) IC50 values are presented as the mean and 95% confidence interval, whereas inhibition values are presented as the mean ± SEM. Data sets are n ≥ 5 from two batches of oocytes.

[2] = target: T2, GlyT2 Y430F mutant (Homo sapiens, UniProt Q9Y345, Y430F); assay: as above; assay type: cell-based; design: expressed in transfected cells; host or cells: Xenopus laevis oocytes injected with mutant RNA (pOTV vector); conditions: for IC50: Y430F GlyT2 in Xenopus laevis oocytes
T2 sequence (Q9Y345 1-797 Y430F): T1 sequence (Q9Y345 1-797 F515W) with Y430F, W515F
Description: as §1, §2

SMILES | Inhibition at 1 µM (column head 3 μM, footnote b) ([1]; F515W, 1 µM) | IC50 [2] | Inhibition at 1 µM (column head 3 μM, footnote b) ([2]; Y430F, 1 µM) | IC50 [1] | Inhibition at 3 μM ([1]; F515W) | Inhibition at 3 μM ([2]; Y430F)
CCCCCCCC/C=C\CCCCCCCC(=O)O[C@H](CC(=O)[O-])C[N+](C)(C)C [Oleoyl-L-Carnitine, oleoyl-L-carnitine] | 57.6 ± 2.3^b % | 0.19 µM | 71.0 ± 3.3^*b % | – | – | –
CCCCCCCC/C=C\CCCCCCCC(=O)N[C@@H](CC(C)C)C(=O)O [Oleoyl-L-Leucine, oleoyl-L-leucine] | – | 0.203 µM | – | 0.4 µM | 86.7 ± 1.7 % | 76.7 ± 2.8%
CCCCCCCC/C=C\CCCCCCCC(=O)N[C@@H](CCCCN)C(=O)O [Oleoyl-L-Lysine, oleoyl-L-lysine] | – | 0.123 µM | – | 0.689 µM | 85.3 ± 6.4% | 92.9 ± 1.7%
CCCCCCCC/C=C\CCCCCCCC(=O)N[C@@H](Cc1c[nH]c2ccccc12)C(=O)O [Oleoyl-L-Tryptophan, oleoyl-L-tryptophan] | – | 0.125 µM | – | 0.128 µM | 82.0 ± 3.9% | 84.5 ± 3.6%
